ChEMBL document CHEMBL4371066, “Synthesis and characterization of a photoresponsive doxorubicin/combretastatin A4 hybrid prodrug” (Bioorg Med Chem Lett, 2019)
Active and inactive are the calls of the source. No cut-off for these calls is given here.

Legend:
Type in all cases: functional, cell-based
MDA-MB-231 [1] = experiment: Phototoxicity against human MDA-MB-231 cells assessed as reduction in cell viability at 4 to 8 uM irradiated with 50 mW cm'-2 UV light for 6 mins and measured after 24 hrs by CCK8 assay
MDA-MB-231 [2] = experiment: Cytotoxicity against human MDA-MB-231 cells assessed as reduction in cell viability at 4 to 8 uM measured after 24 hrs by CCK8 assay
MDA-MB-231 [3] = experiment: Cytotoxicity against human MDA-MB-231 cells assessed as reduction in cell viability at 2 to 8 uM measured after 24 hrs by CCK8 assay
MDA-MB-231 [4] = experiment: Phototoxicity against human MDA-MB-231 cells assessed as reduction in cell viability at 2 to 8 uM irradiated with 50 mW cm'-2 UV light for 6 mins and measured after 24 hrs by CCK8 assay

**Q.** Which Activity (MDA-MB-231 [1]) does the source give for COc1cccc2c1C(=O)c1c(O)c3c(c(O)c1C2=O)C[C@@](O)(C(=O)CO)C[C@@H]3O[C@H]1C[C@H](N)[C@H](O)[C@H](C)O1 here?
**A.** Active

**Q.** And the Activity (MDA-MB-231 [2])?
**A.** Active

**Q.** COc1ccc(/C=C\c2cc(OC)c(OC)c(OC)c2)cc1O was tested. Which Activity (MDA-MB-231 [3]) did it give?
**A.** Active

**Q.** What about the Activity (MDA-MB-231 [4]) of the same compound?
**A.** Active
